Laboratory results as given in patent US6617122B1, “Process for identifying modulators of ABC1 activity” (Xenon Genetics, Inc., priority 1999, dated 2003).

Key:
cholesterol efflux = details: cited from earlier work
ABC1 [1] = details: cited from earlier work
ABC1 [2] = biological target: ABC1 (Homo sapiens, UniProt O95477); details: cited from earlier work
ABC1 mRNA = ABC1 mRNA upon cholesterol loading; format: cell-based

Sequence of ABC1 (Homo sapiens, UniProt O95477) (O95477 whole entry): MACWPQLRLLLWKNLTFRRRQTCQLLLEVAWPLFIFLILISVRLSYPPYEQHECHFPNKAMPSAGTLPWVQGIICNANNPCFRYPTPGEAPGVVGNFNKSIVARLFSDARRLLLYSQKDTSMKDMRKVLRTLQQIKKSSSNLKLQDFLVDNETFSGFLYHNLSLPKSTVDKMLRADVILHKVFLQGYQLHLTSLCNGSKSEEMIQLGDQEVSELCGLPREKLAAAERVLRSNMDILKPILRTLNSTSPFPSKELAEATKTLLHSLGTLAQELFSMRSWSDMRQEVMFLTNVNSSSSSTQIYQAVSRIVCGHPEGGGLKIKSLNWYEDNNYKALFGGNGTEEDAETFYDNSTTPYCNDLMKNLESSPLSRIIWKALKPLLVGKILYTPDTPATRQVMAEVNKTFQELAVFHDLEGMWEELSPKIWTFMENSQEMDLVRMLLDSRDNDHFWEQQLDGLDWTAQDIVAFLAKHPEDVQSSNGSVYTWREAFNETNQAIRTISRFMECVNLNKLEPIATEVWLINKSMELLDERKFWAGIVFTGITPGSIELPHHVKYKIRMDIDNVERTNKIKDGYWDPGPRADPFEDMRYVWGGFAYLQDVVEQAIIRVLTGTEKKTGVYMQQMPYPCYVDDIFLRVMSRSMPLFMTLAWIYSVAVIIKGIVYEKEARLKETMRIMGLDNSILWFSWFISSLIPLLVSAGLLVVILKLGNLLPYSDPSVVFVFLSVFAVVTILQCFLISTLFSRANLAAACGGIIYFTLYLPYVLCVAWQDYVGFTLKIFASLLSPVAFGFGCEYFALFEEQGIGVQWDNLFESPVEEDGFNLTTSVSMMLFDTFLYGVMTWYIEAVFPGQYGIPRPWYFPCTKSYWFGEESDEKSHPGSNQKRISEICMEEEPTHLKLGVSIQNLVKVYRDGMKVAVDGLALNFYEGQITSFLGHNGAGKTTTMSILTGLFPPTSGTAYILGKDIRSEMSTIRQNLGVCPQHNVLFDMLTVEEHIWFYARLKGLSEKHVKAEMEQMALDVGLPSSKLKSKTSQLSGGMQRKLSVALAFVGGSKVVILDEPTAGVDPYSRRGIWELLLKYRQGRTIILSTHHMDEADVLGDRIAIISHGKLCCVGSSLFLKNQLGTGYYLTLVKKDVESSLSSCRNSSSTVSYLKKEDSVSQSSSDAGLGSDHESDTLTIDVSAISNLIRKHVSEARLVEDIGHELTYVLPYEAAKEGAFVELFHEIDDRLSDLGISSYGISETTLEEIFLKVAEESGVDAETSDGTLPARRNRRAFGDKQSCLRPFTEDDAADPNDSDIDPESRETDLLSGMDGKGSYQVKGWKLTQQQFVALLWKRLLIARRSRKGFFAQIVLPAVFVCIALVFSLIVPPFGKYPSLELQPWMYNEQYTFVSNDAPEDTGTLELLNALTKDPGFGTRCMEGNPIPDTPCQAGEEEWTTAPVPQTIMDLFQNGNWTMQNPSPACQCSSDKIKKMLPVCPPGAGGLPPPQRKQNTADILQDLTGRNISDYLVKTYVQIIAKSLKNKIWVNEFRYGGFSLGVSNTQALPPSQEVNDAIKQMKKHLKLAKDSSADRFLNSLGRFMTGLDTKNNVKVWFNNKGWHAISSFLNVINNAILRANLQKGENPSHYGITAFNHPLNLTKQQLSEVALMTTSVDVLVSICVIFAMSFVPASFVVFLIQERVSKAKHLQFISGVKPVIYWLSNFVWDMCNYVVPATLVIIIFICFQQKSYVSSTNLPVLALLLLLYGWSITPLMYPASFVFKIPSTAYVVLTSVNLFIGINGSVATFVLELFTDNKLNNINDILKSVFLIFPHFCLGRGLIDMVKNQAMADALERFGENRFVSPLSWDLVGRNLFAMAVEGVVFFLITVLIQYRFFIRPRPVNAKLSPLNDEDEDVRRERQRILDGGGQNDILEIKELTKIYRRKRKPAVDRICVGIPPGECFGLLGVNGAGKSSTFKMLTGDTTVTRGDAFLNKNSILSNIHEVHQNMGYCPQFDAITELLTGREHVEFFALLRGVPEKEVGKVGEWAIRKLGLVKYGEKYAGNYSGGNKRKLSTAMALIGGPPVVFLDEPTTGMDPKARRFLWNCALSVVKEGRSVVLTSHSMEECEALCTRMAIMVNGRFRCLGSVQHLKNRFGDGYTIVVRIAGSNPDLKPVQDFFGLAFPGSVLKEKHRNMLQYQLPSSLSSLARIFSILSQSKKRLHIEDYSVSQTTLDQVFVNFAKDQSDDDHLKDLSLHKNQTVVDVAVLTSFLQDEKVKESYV

C[C@H]1CCC/C=C/[C@@H]2C[C@H](O)C[C@H]2[C@H](O)/C=C/C(=O)O1 [Brefeldin]
cholesterol efflux (cholesterol efflux): significantly inhibits cholesterol efflux

O=S(=O)(O)c1cc(N=C=S)ccc1C=Cc1ccc(N=C=S)cc1S(=O)(=O)O [DIDS]
inhibition of ABC1 (ABC1 [1]): inhibit

CC(C)Cn1c(=O)n(C)c(=O)c2[nH]cnc21 [IBMX1]
upregulation of ABC1 expression or biological activity (ABC1 [2]): upregulate

CC(C)CCC[C@@H](C)[C@H]1CC[C@H]2[C@@H]3CC=C4C[C@@H](O)CC[C@]4(C)[C@H]3CC[C@]12C [cholesterol]
increase of ABC1 mRNA (ABC1 mRNA): approximately 8 fold

O=C(O)c1ccccc1Nc1ccccc1 [diphenylamine-2-carbonic acid]
inhibition of ABC1 (ABC1 [1]): inhibit

O=C(O)c1ccccc1Nc1cccc(C(F)(F)F)c1 [flufenamic acid]
inhibition of ABC1 (ABC1 [1]): inhibit

COc1ccc(Cl)cc1C(=O)NCCc1ccc(S(=O)(=O)NC(=O)NC2CCCCC2)cc1 [glibenclamide]
inhibition of ABC1 (ABC1 [1]): inhibit

C=C1[C@@H](O)[C@@H]2O[C@]3(CC[C@H](/C=C/[C@@H](C)[C@@H]4CC(C)=C[C@@]5(O[C@H](C[C@@](C)(O)C(=O)O)CC[C@H]5O)O4)O3)CC[C@H]2O[C@@H]1[C@@H](O)C[C@H](C)[C@H]1O[C@@]2(CCCCO2)CC[C@H]1C [okadaic acid]
upregulation of ABC1 expression or biological activity (ABC1 [2]): upregulate

O=C1OC(c2ccc(O)c(S(=O)(=O)O)c2)(c2ccc(O)c(S(=O)(=O)O)c2)c2c(Br)c(Br)c(Br)c(Br)c21 [sulfobromophthalein]
inhibition of ABC1 (ABC1 [1]): inhibit

[O]=[V]([O-])([O-])[O-] [vanadate]
upregulation of ABC1 expression or biological activity (ABC1 [2]): upregulate
